The values below come from article PMC6084407, “Structural Basis of Phosphatidic Acid Sensing by APH in Apicomplexan Parasites” (Structure(London, England:1993), 2018).

One may read the Kd as a measure of binding affinity in units of concentration. A low value points to higher affinity.

The target in assay [1] is T1, PfAPH106-235 (Plasmodium falciparum, UniProt Q8I1U2).
T1 construct: gene PF3D7_0414600; C-terminal PH domain, residues 106-235; codon-optimised gene, pNIC28a-Bsa4, E. coli BL21(DE3); N-terminal His6 tag cut by TEV
T1 sequence (Q8I1U2 entry or part of it): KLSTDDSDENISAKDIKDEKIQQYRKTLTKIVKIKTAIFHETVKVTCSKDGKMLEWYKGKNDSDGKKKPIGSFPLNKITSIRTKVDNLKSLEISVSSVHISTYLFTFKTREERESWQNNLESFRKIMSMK
The assay can be described thus: 1D 1H NMR LUV titration. The format is binding.

For assay [2], the target named is T2, PfAPH106-235 (Plasmodium falciparum, UniProt Q8I1U2, K138A).
T2 construct: gene PF3D7_0414600
T2 sequence (Q8I1U2 106-235 K138A): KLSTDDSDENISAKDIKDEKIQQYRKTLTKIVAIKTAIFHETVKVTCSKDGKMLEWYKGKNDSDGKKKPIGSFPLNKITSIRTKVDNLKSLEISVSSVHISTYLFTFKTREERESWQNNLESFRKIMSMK
Put plainly: biochemical.

The target of assay [3] is T3, PfAPH106-235 (Plasmodium falciparum, UniProt Q8I1U2, H145A).
T3 construct: gene PF3D7_0414600
T3 sequence (Q8I1U2 106-235 H145A): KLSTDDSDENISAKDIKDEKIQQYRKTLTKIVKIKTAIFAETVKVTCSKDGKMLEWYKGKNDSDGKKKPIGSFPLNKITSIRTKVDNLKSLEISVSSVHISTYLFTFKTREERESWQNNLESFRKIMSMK
The assay can be described thus: biochemical.

Assay [4] addresses T4, PfAPH106-235 (Plasmodium falciparum, UniProt Q8I1U2, F144A/I143A).
T4 construct: gene PF3D7_0414600
Put plainly: biochemical.

Assay [5] has as its target T5, PfAPH106-235 (Plasmodium falciparum, UniProt Q8I1U2, K140A).
T5 construct: gene PF3D7_0414600
Put plainly: biochemical.

Assay [6] deals with T6, PfAPH106-235 (Plasmodium falciparum, UniProt Q8I1U2, K138A/K140A).
T6 construct: gene PF3D7_0414600
T6 sequence (Q8I1U2 106-235 K138A/K140A): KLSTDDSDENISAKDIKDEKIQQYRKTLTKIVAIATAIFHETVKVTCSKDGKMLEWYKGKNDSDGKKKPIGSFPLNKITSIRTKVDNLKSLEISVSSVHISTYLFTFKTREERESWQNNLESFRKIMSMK
The assay can be described thus: biochemical.

The target in a further assay is T7, TgAPH99-229 (Toxoplasma gondii, UniProt A0A125YY72).
T7 construct: gene TGME49_249970; C-terminal PH domain, residues 99-229; codon-optimised gene, pNIC28a-Bsa4, E. coli BL21(DE3); N-terminal His6 tag cut by TEV
T7 sequence (A0A125YY72 entry or part of it): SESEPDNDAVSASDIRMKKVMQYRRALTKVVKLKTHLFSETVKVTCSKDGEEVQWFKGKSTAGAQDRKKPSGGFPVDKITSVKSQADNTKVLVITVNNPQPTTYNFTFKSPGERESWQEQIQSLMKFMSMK
Put plainly: 1H-15N HSQC NMR titration. In kind it is binding. Conditions: free short-chain lipid; 250 μM protein; buffer pH 7.

Assay [7] has as its target T1, PfAPH106-235. The assay can be described thus: 1H-15N HSQC NMR titration. In kind it is binding. An excerpt: 1H-15N HSQC NMR titration on PfAPH106-235 | binding to the short-chain PA is in the fast exchange regime on the NMR timescale

T5 sequence (Q8I1U2 106-235 K140A): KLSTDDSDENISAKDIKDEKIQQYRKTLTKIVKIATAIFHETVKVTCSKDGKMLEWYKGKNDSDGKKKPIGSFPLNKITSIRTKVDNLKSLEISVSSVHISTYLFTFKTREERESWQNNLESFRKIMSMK
T4 sequence (Q8I1U2 106-235 F144A/I143A): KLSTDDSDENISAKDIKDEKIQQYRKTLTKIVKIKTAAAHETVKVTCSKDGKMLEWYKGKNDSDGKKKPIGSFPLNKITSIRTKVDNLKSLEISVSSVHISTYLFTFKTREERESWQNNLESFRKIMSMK

For the compound `CCCCCCCC/C=C\CCCCCCCC(=O)O[C@H](COC(=O)CCCCCCCCCCCCCCC)COP(=O)(O)O` [POPA, 1-palmitoyl-2-oleoyl-sn-glycero-3-phosphate], the dissociation constant (Kd) worked out at 275 ± 13 µM at PfAPH106-235 [1]; 959 ± 35 µM on PfAPH106-235 [2]; 499 ± 9 µM on PfAPH106-235 [3]; 1320 µM at PfAPH106-235 [4]; 604 ± 29 µM at PfAPH106-235 [5]; 1490 µM at PfAPH106-235 [6].
With `CCCCCCCC/C=C\CCCCCCCC(=O)O[C@H](COC(=O)CCCCCCCCCCCCCCC)COP(=O)([O-])OCC[N+](C)(C)C` [POPC, 1-palmitoyl-2-oleoyl-sn-glycero-3-phosphocholine], on PfAPH106-235 [1], the equilibrium dissociation constant (Kd) worked out at 1070 ± 33 µM.
On PfAPH106-235 [1], `CCCCCCCC/C=C\CCCCCCCC(=O)O[C@H](COC(=O)CCCCCCCCCCCCCCC)COP(=O)(O)OC[C@H](N)C(=O)O` [POPS, 1-palmitoyl-2-oleoyl-sn-glycero-3-phospho-L-serine] had a Kd of 850 ± 13 µM.
Regarding `CCCCCC(=O)OC[C@H](COP(=O)(O)O)OC(=O)CCCCC` [short-chain PA, 1,2-dihexanoyl-sn-glycero-3-phosphate], the “1H-15N HSQC NMR titration” value on TgAPH99-229 was “Binding experiments with recombinant APHs and short-chain PA enabled mapping”. On PfAPH106-235 [7], this compound returned a Kd of over 50 µM.
